Assay results from PMC8815882, “Screening the pandemic response box identified benzimidazole carbamates, Olorofim and ravuconazole as promising drug candidates for the treatment of eumycetoma” (PLoS Neglected Tropical Diseases, 2022).
Read-outs that look alike come from different tables or passages of the source.

Tested on: M. mycetomatis genome strain MM55
Experiment: CLSI M38-A2 based in vitro susceptibility screening (XTT or resazurin), growth at fixed concentration
Format: cell-based, Madurella mycetomatis
Conditions: Madurella mycetomatis; for Percent fungal survival at 100 µM: read-out: Percentage survival at 100um, 100 uM A (second replicate column)
[1] = mean, read-out: Percentage survival at 25um, 25 uM mean
[2] = replicate A, read-out: Percentage survival at 25um, 25 um A
[3] = replicate B, read-out: Percentage survival at 25um, 25 uM B
[4] = replicate C, read-out: Percentage survival at 25um, 25 uM C
[5] = mean, read-out: Percentage survival at 100um, 100 uM mean
[6] = replicate (first column), read-out: Percentage survival at 100um, 100 uM A
[7] = replicate (second column), read-out: Percentage survival at 100um, 100 uM A
[8] = replicate (third column), read-out: Percentage survival at 100um, 100 uM A
[9] = mean of replicates, MM55, read-out: Percentage survival at 25um, 25 uM mean
[10] = replicate A, MM55, read-out: Percentage survival at 25um, 25 um A
[11] = replicate B, MM55, read-out: Percentage survival at 25um, 25 uM B
[12] = replicate C, MM55, read-out: Percentage survival at 25um, 25 uM C
[13] = mean of replicates, MM55, read-out: Percentage survival at 100um, 100 uM mean
[14] = replicate 1, MM55, read-out: Percentage survival at 100um, 100 uM A
[15] = replicate 2, MM55, read-out: Percentage survival at 100um, 100 uM A
[16] = replicate 3, MM55, read-out: Percentage survival at 100um, 100 uM A
[17] = mean of replicates, read-out: Percentage survival at 25um, 25 uM mean
[18] = mean of replicates, read-out: Percentage survival at 100um, 100 uM mean
[19] = replicate 1, read-out: Percentage survival at 100um, 100 uM A
[20] = replicate 2, read-out: Percentage survival at 100um, 100 uM A
[21] = replicate 3, read-out: Percentage survival at 100um, 100 uM A
[22] = mean of three replicates, read-out: Percentage survival at 25um, 25 uM mean
[23] = mean of three replicates, read-out: Percentage survival at 100um, 100 uM mean
[24] = replicate 1, read-out: Percentage survival at 100um, 100 uM A (first replicate column)
[25] = replicate 3, read-out: Percentage survival at 100um, 100 uM A (third replicate column)

OC(Cn1cncn1)(Cn1cncn1)c1ccc(F)cc1F [MMV002337]
activity at 25 µM [1]: 113% | activity at 25 µM [2]: 137% | activity at 25 µM [3]: 52.7% | activity at 25 µM [4]: 150% | activity at 100 µM [5]: 1.38% | activity at 100 µM [6]: -3.44% | activity at 100 µM [7]: 4.59% | activity at 100 µM [8]: 3.01%

CCn1cc(C(=O)O)c(=O)c2cc(F)c(N3CCNC(C)C3)c(F)c21 (centres unmarked) [MMV002350]
activity at 25 µM [9]: 91.3% | activity at 25 µM [10]: 97.9% | activity at 25 µM [11]: 93.8% | activity at 25 µM [12]: 82.3% | activity at 100 µM [13]: 89% | activity at 100 µM [14]: 92.8% | activity at 100 µM [15]: 92.2% | activity at 100 µM [16]: 82.2%

C[C@@H]1O[C@@H]1P(=O)(O)O [MMV002354]
activity at 25 µM [17]: 88.5% | activity at 25 µM [2]: 88.5% | activity at 25 µM [3]: 86.5% | activity at 25 µM [4]: 90.5% | activity at 100 µM [18]: 88.2% | activity at 100 µM [19]: 81.5% | activity at 100 µM [20]: 93.4% | activity at 100 µM [21]: 89.6%

NC[C@H]1O[C@H](O[C@H]2[C@H](O)[C@@H](O[C@H]3O[C@H](CO)[C@@H](O)[C@H](N)[C@H]3O)[C@H](N)C[C@@H]2N)[C@H](N)C[C@@H]1O [MMV002459]
activity at 25 µM [17]: 86.6% | activity at 25 µM [2]: 96.5% | activity at 25 µM [3]: 69% | activity at 25 µM [4]: 94.3% | activity at 100 µM [18]: 63.3% | activity at 100 µM [19]: 89.3% | activity at 100 µM [20]: 40% | activity at 100 µM [21]: 60.6%

CSc1ccc2c(c1)C(N1CCN(C)CC1)Cc1ccccc1S2 (centres unmarked) [MMV002505]
activity at 25 µM [9]: 38.4% | activity at 25 µM [10]: 7.34% | activity at 25 µM [11]: 101% | activity at 25 µM [12]: 6.61% | activity at 100 µM [13]: 3.79% | activity at 100 µM [14]: 3.82% | activity at 100 µM [15]: -0.0923% | activity at 100 µM [16]: 7.64%

CC[C@@H]1C(=O)OC[C@@H]1Cc1cncn1C [MMV002516]
activity at 25 µM [17]: 82.7% | activity at 25 µM [2]: 90.3% | activity at 25 µM [3]: 90.6% | activity at 25 µM [4]: 67.2% | activity at 100 µM [18]: 73.8% | activity at 100 µM [19]: 82.4% | activity at 100 µM [20]: 85% | activity at 100 µM [21]: 53.9%

CO/N=C(\C(=O)N[C@@H]1C(=O)N2C(C(=O)OCOC(=O)C(C)(C)C)=C(/C=C\c3scnc3C)CS[C@H]12)c1csc(N)n1 [MMV002560]
activity at 25 µM [17]: 117% | activity at 25 µM [2]: 84.9% | activity at 25 µM [3]: 78.8% | activity at 25 µM [4]: 186% | activity at 100 µM [18]: 77.5% | activity at 100 µM [19]: 72.7% | activity at 100 µM [20]: 83.7% | activity at 100 µM [21]: 76%

COC(=O)Nc1nc2ccc([S+]([O-])c3ccccc3)cc2[nH]1 (centres unmarked) [MMV002565, Oxfendazole, reference compound]
activity at 25 µM [1]: 87.4% | activity at 25 µM [2]: 91.3% | activity at 25 µM [3]: 87.4% | activity at 25 µM [4]: 83.6% | activity at 100 µM [5]: 76.1% | activity at 100 µM [6]: 83.9% | activity at 100 µM [7]: 71.1% | activity at 100 µM [8]: 73.2%

O=C1CCC(N2C(=O)c3ccccc3C2=O)C(=O)N1 (centres unmarked) [MMV002612]
activity at 25 µM [22]: 90.8% | activity at 25 µM [2]: 89.5% | activity at 25 µM [3]: 90.5% | activity at 25 µM [4]: 92.5% | activity at 100 µM [23]: 85.3% | activity at 100 µM [24]: 88.1% | Percent fungal survival at 100 µM (replicate 2): 84.8% | activity at 100 µM [25]: 82.9%

NCc1ccc(S(N)(=O)=O)cc1 [MMV002665]
activity at 25 µM [22]: 85.4% | activity at 25 µM [2]: 82.7% | activity at 25 µM [3]: 87.5% | activity at 25 µM [4]: 86.1% | activity at 100 µM [23]: 90.8% | activity at 100 µM [24]: 98.4% | Percent fungal survival at 100 µM (replicate 2): 78.3% | activity at 100 µM [25]: 95.8%
